Source: ChEMBL document CHEMBL1671708, “Hydroxymethylnitrofurazone is active in a murine model of Chagas' disease” (Antimicrob Agents Chemother, 2010)
Activity calls are given as the source filed them. The calls are words filed in the database; no cut-off is given here.

Assays:
Trypanosoma cruzi [1] = assay: Antimicrobial activity against Trypanosoma cruzi Tulahuen infected in Swiss mouse assessed as mouse mortality rate at 150 mg/kg/day, po for 6 days per week until completion of 60 compound doses administered 5 days post infection; format: functional
Trypanosoma cruzi [2] = assay: Antimicrobial activity against Trypanosoma cruzi Tulahuen infected in Swiss mouse assessed as parasite DNA level at 150 mg/kg/day, po for 6 days per week until completion of 60 compound doses administered 5 days post infection measured 30 days post dose by PCR amplification method; format: functional
Trypanosoma cruzi [3] = assay: Antimicrobial activity against Trypanosoma cruzi Tulahuen infected in Swiss mouse assessed as parasite DNA level at 150 mg/kg/day, po for 6 days per week until completion of 60 compound doses administered 5 days post infection measured 180 days post dose by PCR amplification method; format: functional
Trypanosoma cruzi [4] = assay: (§1) Antimicrobial activity against Trypanosoma cruzi Tulahuen infected in Swiss mouse assessed as reduction in blood parasite load at 150 mg/kg/day, po for 6 days per week until completion of 60 compound doses administered 5 days post infection; format: functional, organism-based
Trypanosoma cruzi [5] = assay: as §1, with “in” for “in blood”, “specific antibodies” for “load”, “infection measured 45 days post dose by ELISA based serological study” for “infection”; format: functional, organism-based
Trypanosoma cruzi [6] = assay: (§2) Antimicrobial activity against Trypanosoma cruzi Tulahuen infected in Swiss mouse assessed as reduction in parasite specific antibodies at 150 mg/kg/day, po for 6 days per week until completion of 60 compound doses administered 5 days post infection measured 180 days post dose by ELISA based serological study; format: functional; design: scale not given: the % may be the effect or the level left
Trypanosoma cruzi [7] = assay: as §1, with “reduction in” for “blood”, “induced histopathological changes in skeletal muscle” for “load”, “infection by hematoxylin-eosin staining” for “infection”; format: functional, organism-based
Trypanosoma cruzi [8] = assay: as §1, with “reduction in” for “blood”, “induced histopathological changes in liver” for “load”, “infection by hematoxylin-eosin staining” for “infection”; format: functional, organism-based
Mus musculus [9] = assay: Toxicity in Trypanosoma cruzi Tulahuen infected in Swiss mouse assessed as changes in liver SGOT enzyme levels at 150 mg/kg/day, po for 6 days per week until completion of 60 compound doses administered 5 days post infection […]; format: organism-based; design: route oral; conditions: in vivo
Mus musculus [10] = assay: Toxicity in Swiss mouse infected with Trypanosoma cruzi Tulahuen assessed as occurrence of erected hair at 150 mg/kg/day, po for 6 days per week until completion of 60 compound doses administered 5 days post infection measured 2 weeks post dose; format: organism-based; design: route oral; conditions: in vivo, 336 h
Mus musculus [11] = assay: Toxicity in Swiss mouse infected with Trypanosoma cruzi Tulahuen assessed as occurrence of dehydration at 150 mg/kg/day, po for 6 days per week until completion of 60 compound doses administered 5 days post infection measured 2 weeks post dose; format: organism-based; design: route oral; conditions: in vivo, 336 h
Mus musculus [12] = assay: Toxicity in Swiss mouse infected with Trypanosoma cruzi Tulahuen assessed as occurrence of inactivity at 150 mg/kg/day, po for 6 days per week until completion of 60 compound doses administered 5 days post infection measured 2 weeks post dose; format: organism-based; design: route oral; conditions: in vivo, 336 h
Trypanosoma cruzi [13] = assay: Antimicrobial activity against Trypanosoma cruzi Tulahuen infected in Swiss mouse assessed as mouse mortality at 60 mg/kg/day, po for 6 days per week until completion of 60 compound doses administered 5 days post infection; format: functional
Trypanosoma cruzi [14] = assay: Antimicrobial activity against Trypanosoma cruzi Tulahuen infected in Swiss mouse assessed as parasite DNA level at 60 mg/kg/day, po for 6 days per week until completion of 60 compound doses administered 5 days post infection measured 30 days post dose by PCR amplification method; format: functional
Trypanosoma cruzi [15] = assay: Antimicrobial activity against Trypanosoma cruzi Tulahuen infected in Swiss mouse assessed as parasite DNA level at 60 mg/kg/day, po for 6 days per week until completion of 60 compound doses administered 5 days post infection measured 180 days post dose by PCR amplification method; format: functional
Trypanosoma cruzi [16] = assay: (§3) Antimicrobial activity against Trypanosoma cruzi Tulahuen infected in Swiss mouse assessed as reduction in blood parasite load at 60 mg/kg/day, po for 6 days per week until completion of 60 compound doses administered 5 days post infection; format: functional, organism-based
Trypanosoma cruzi [17] = assay: as §2, with “60” for “150”, “45” for “180”; format: functional, organism-based
Trypanosoma cruzi [18] = assay: as §2, with “60” for “150”; format: functional; design: scale not given: the % may be the effect or the level left
Trypanosoma cruzi [19] = assay: as §3, with “reduction in” for “blood”, “induced histopathological changes in skeletal muscle” for “load”, “infection by hematoxylin-eosin staining” for “infection”; format: functional, organism-based
Trypanosoma cruzi [20] = assay: as §3, with “reduction in” for “blood”, “induced histopathological changes in liver” for “load”, “infection by hematoxylin-eosin staining” for “infection”; format: functional, organism-based
Mus musculus [21] = assay: Toxicity in Trypanosoma cruzi Tulahuen infected in Swiss mouse assessed as changes in liver SGOT enzyme levels at 60 mg/kg/day, po for 6 days per week until completion of 60 compound doses administered 5 days post infection […]; format: organism-based; design: route oral; conditions: in vivo

`O=C(NCO)N/N=C/c1ccc([N+](=O)[O-])o1` [HYDROXYMETHYLNITROFURAZONE] showed an Activity (Trypanosoma cruzi [1]) of 16%, an Activity (Trypanosoma cruzi [2]) of 10% and an Activity (Trypanosoma cruzi [3]) of 0%. The Activity (Trypanosoma cruzi [4]) was “Active”, the Activity (Trypanosoma cruzi [5]) was “Active” and the Activity (Trypanosoma cruzi [6]) was 30%. The Activity (Trypanosoma cruzi [7]) was “Active”, the Activity (Trypanosoma cruzi [8]) was “Active” and the Activity (Mus musculus [9]) was “Non-toxic”.

`NC(=O)N/N=C/c1ccc([N+](=O)[O-])o1` [NITROFURAZONE] gave an Activity (Trypanosoma cruzi [1]) of 75%, an Activity (Trypanosoma cruzi [2]) of 66.6% and an Activity (Trypanosoma cruzi [3]) of 0%. For the same molecule, the Activity (Mus musculus [10]) was “Toxic”, the Activity (Mus musculus [11]) was “Toxic” and the Activity (Mus musculus [12]) was “Toxic”. The Activity (Trypanosoma cruzi [4]) was “Active”, the Activity (Trypanosoma cruzi [5]) was “Active” and the Activity (Trypanosoma cruzi [7]) was “Active”. For the same molecule, the Activity (Trypanosoma cruzi [8]) was “Active” and the Activity (Mus musculus [9]) was “Non-toxic”.

With `O=C(Cn1ccnc1[N+](=O)[O-])NCc1ccccc1` [BENZNIDAZOLE] the Activity (Trypanosoma cruzi [13]) was 33.3%, the Activity (Trypanosoma cruzi [14]) was 0% and the Activity (Trypanosoma cruzi [15]) was 0%. For the same molecule, the Activity (Trypanosoma cruzi [16]) was “Active”, the Activity (Trypanosoma cruzi [17]) was “Active” and the Activity (Trypanosoma cruzi [18]) was 50%. The Activity (Trypanosoma cruzi [19]) was “Active”, the Activity (Trypanosoma cruzi [20]) was “Active” and the Activity (Mus musculus [21]) was “Non-toxic”.
